Laboratory results reported in ChEMBL document CHEMBL4177652, “Synthesis of 14-deoxy-11,12-didehydroandrographolide analogues as potential cytotoxic agents for cholangiocarcinoma” (Bioorg Med Chem Lett, 2017).

Legend:
[1] = Growth inhibition of human HEK293 cells after 72 hrs by SRB assay; assay type: cell-based; conditions: read-out: ED50
KB = experiment: Growth inhibition of human KB cells after 72 hrs by SRB assay; assay type: functional; conditions: read-out: ED50 (the source's name)
[2] = Growth inhibition of rat ASK cells after 72 hrs by SRB assay; assay type: functional; conditions: read-out: ED50 (the source's name)
A549 = experiment: Growth inhibition of human A549 cells after 72 hrs by SRB assay; assay type: functional; conditions: A549, 72 h, read-out: ED50 (the source's name)
HuCC-A1 = experiment: Growth inhibition of human HuCCa1 cells after 72 hrs by SRB assay; assay type: functional; conditions: HuCC-A1, 72 h, read-out: ED50 (the source's name)
P388 = experiment: Growth inhibition of mouse P388 cells after 72 hrs by SRB assay; assay type: functional; conditions: P388, 72 h, read-out: ED50 (the source's name)
[3] = Growth inhibition of human KKU100 cells after 72 hrs by SRB assay; assay type: functional; conditions: KKU100, 72 h, read-out: ED50 (the source's name)
[4] = Growth inhibition of human KKU-M213 cells after 72 hrs by SRB assay; assay type: functional; conditions: KKU-M213, 72 h, read-out: ED50 (the source's name)
MCF7 = experiment: Growth inhibition of human MCF7 cells after 72 hrs by SRB assay; assay type: functional; conditions: MCF7, 72 h, read-out: ED50 (the source's name)
HT-29 = experiment: Growth inhibition of human HT-29 cells after 72 hrs by SRB assay; assay type: functional; conditions: HT-29, 72 h, read-out: ED50 (the source's name)

| SMILES | GI50 at 72 h [1] [µM] | EC50 (KB) [µM] | EC50 [2] [µM] | EC50 (A549) [µM] | EC50 (HuCC-A1) [µM] | EC50 (P388) [µM] | EC50 [3] [µM] | EC50 [4] [µM] | EC50 (MCF7) [µM] | EC50 (HT-29) [µM] |
| --- | --- | --- | --- | --- | --- | --- | --- | --- | --- | --- |
| CC(=O)OC[C@@]1(C)[C@H]2CC[C@@]3(CO3)[C@@H](/C=C/C3=CCOC3=O)[C@]2(C)CC[C@H]1OC(C)=O | > 50 | > 50 | > 50 | > 50 | > 50 | > 50 | > 50 | > 50 | > 50 | > 50 |
| CC(C)(C)[Si](C)(C)OC[C@@]1(C)[C@H]2CC[C@@]3(CO3)[C@@H](/C=C/C3=CCOC3=O)[C@]2(C)CC[C@H]1O | 6.15 | 19.2 | 19 | 9.36 | > 50 | 15.1 | 9.25 | 8.57 | 8.18 | 7.24 |
| CC(=O)O[C@@H]1CC[C@]2(C)[C@H](CC[C@@]3(CO3)[C@H]2/C=C/C2=CCOC2=O)[C@]1(C)CO[Si](C)(C)C(C)(C)C | 18.1 | 25.8 | 22.4 | 24.1 | 23.4 | 7.45 | 16.4 | 19.1 | 16.6 | 18.6 |
| C=C1CC[C@@H]2[C@](C)(CO[Si](C(C)C)(C(C)C)C(C)C)[C@H](O)CC[C@@]2(C)[C@@H]1/C=C/C1=CCOC1=O | 5.28 | 4.7 | 7.35 | 7.95 | 6.72 | 5.96 | 18.2 | 7.06 | 5.46 | 7.14 |
| CC(=O)O[C@@H]1CC[C@]2(C)[C@H](CC[C@@]3(CO3)[C@H]2/C=C/C2=CCOC2=O)[C@]1(C)CO[Si](C(C)C)(C(C)C)C(C)C | 7.39 | 8.48 | 15.7 | 8.65 | 8.92 | 7.84 | 17.5 | 7.22 | 7.84 | 7.4 |
| C[C@]1(COC(c2ccccc2)(c2ccccc2)c2ccccc2)[C@H]2CC[C@@]3(CO3)[C@@H](/C=C/C3=CCOC3=O)[C@]2(C)CC[C@H]1O | 5.39 | 4.92 | 6.47 | 5.88 | 7.81 | 3.33 | 28.8 | 4.68 | 5.38 | 6.21 |
| C=C1CC[C@@H]2[C@](C)(CO[Si](C)(C)C(C)(C)C)[C@H](OC(C)=O)CC[C@@]2(C)[C@@H]1/C=C/C1=CCOC1=O | 6.36 | 4.94 | 16.2 | 9.18 | 16 | 6.56 | 14 | 12.1 | 6.37 | 12.8 |
| CC(=O)O[C@@H]1CC[C@]2(C)[C@H](CC[C@@]3(CO3)[C@H]2/C=C/C2=CCOC2=O)[C@]1(C)CO[Si](c1ccccc1)(c1ccccc1)C(C)(C)C | 6.01 | 5.19 | 8.96 | 8.31 | 8.08 | 5.25 | 4.5 | 5.13 | 6.38 | 5.22 |
| C=C1CC[C@@H]2[C@](C)(CO[Si](c3ccccc3)(c3ccccc3)C(C)(C)C)[C@H](OC(C)=O)CC[C@@]2(C)[C@@H]1/C=C/C1=CCOC1=O | 5.57 | 5.15 | > 50 | 9.47 | 24.3 | 14.5 | > 50 | 16 | 7.77 | 32.5 |
| C=C1CC[C@@H]2[C@](C)(COC(c3ccccc3)(c3ccccc3)c3ccccc3)[C@H](OC(C)=O)CC[C@@]2(C)[C@@H]1/C=C/C1=CCOC1=O | 7.02 | 6.36 | 39.9 | 12 | 38.6 | 12.9 | > 50 | 9.98 | 9.12 | 21.9 |
| C=C1CC[C@@H]2[C@](C)(CO)[C@H](O)CC[C@@]2(C)[C@@H]1/C=C/C1=CCOC1=O | 7.53 | 5.07 | > 50 | 28.2 | 35.8 | 35 | 36.9 | > 50 | 18.7 | 28.6 |
